Holding throughout (format): cell-based
The subject of experiment [1] is HA-tagged HBeAg (HBV) in DESHAe82 cells. Kind of experiment: AlphaLisa eAg: HA-HBeAg level in DESHAe82 cell culture (anti-HBV / anti-cccDNA activity). The conditions noted are these: Hepatitis B virus, 216 h, read-out: AlphaLisa_eAg EC50. On the procedure: Evaluation of anti-HBV activity of the compounds in in vitro cell culture studies was conducted using a modification of the assay system described in Cai et al., 2012, Antimicrobial Agents Chemotherapy 56(8):4277-88, and PCT/EP/2015/06838. In the DESHAe82 cell culture system, the HA epitope-tagged secreted HBV “e antigen” (HBeAg) and HBV precore RNA are produced only from the cccDNA circular template that is formed after HBV replication in absence of Tetracycline (Tet). The DESHAe82 cell line produces high levels of cccDNA synthesis and HA-HBeAg, and high specific readout signals with low noise.
Two assay systems, a chemiluminescence ELISA (CLIA) and a proximity […] assay (AlphaLISA) were developed and used for high-sensitivity detection of HA-tagged HBeAg. To test the compound, DESHAe82 were plated in 96 well tissue-culture treated microtiter plates in DMEM/F12 medium supplemented with 10% fetal bovine serum+1% penicillin-streptomycin with Tet, and incubated in a humidified incubator at 37° C. and 5% CO2 overnight. Next day, the cells were switched to fresh medium without Tet and treated with a test compound, over a range of concentrations (compound is solubilized in 100% DMSO before dilution in cell culture media, and the final DMSO concentration in the assay was 0.5%), and incubated for a duration of 9 days in a humidified incubator at 37° C. and 5% CO2. Untreated negative control samples (0.5% DMSO only) were included on each plate in multiple wells. On day 9, media was harvested and removed to a fresh plate, and level of HA-HBeAg was determined by CLIA or AlphaLISA. Anti-cccDNA activity of each test compound concentration was calculated as a percentage of HA-HBeAg signal detected in negative control samples versus compound-treated samples, and EC50 value for each compound was defined as the concentration that reduced the HA-HBeAg signal by 50%.
(Alpha assays give light when donor and acceptor beads are brought close together.)

The test system of experiment [2] is plus-strand of HBV rcDNA in HepDE19 cells. Description: HepDE19 assay with bDNA quantitation of HBV rcDNA, plus-strand probe set. The conditions noted are these: Hepatitis B virus, 168 h, 7 days, top concentration 25 μM, Quantigene 2.0 bDNA, plus-strand (PS) rcDNA, read-out: bDNA_RCDNA_PS EC50. As to the method:
(§1) (b) HepDE19 Assay with bDNA Quantitation of HBV rcDNA
(§2) HepDE19 cell culture system is a HepG2 (human hepatocarcinoma) derived cell line that supports HBV DNA replication and cccDNA formation in a tetracycline (Tet)-regulated manner and produces HBV rcDNA and a detectable reporter molecule dependent on the production and maintenance of cccDNA (Guo, et al., 2007, J. Virol. 81:12472-12484). HepDE19 (50,000 cells/well) were plated in 96 well collagen-coated tissue-culture treated microtiter plates in DMEM/F12 medium supplemented with 10% fetal bovine serum, 1% penicillin-streptomycin and 1 μg/mL tetracycline and incubated in a humidified incubator at 37° C. and 5% CO2 overnight. Next day, the cells were switched to fresh medium without tetracycline and incubated for 4 hrs at 37° C. and 5% CO2. The cells were treated with fresh Tet-free medium with compounds at concentrations starting at 25 μM and a serial, ½ log, 8-point, titration series in duplicate. The final DMSO concentration in the assay was 0.5%. The plates were incubated for 7 days in a humidified incubator at 37° C. and 5% CO2. Following a 7 day-incubation, the level of rcDNA present in the inhibitor-treated wells was measured using a Quantigene 2.0 bDNA assay kit (Affymetrix, Santa Clara, Calif.) with HBV specific custom probe set and manufacturer's instructions. In order to differentiate HBV RNaseH inhibitors from other classes of HBV inhibitors (for example, nucleos(t)ide analogs or capsid inhibitors), the assay method was configured by incorporating the quantitation of both the minus-strand and the plus-strand of HBV rcDNA levels using specifically designed HBV probe sets. This is based on the observation that inhibition of RNaseH enzyme activity results in a block of the synthesis of the plus strand synthesis by the viral polymerase that follows the synthesis of the minus-strand of rcDNA (Tavis & Lomonosova, 2015, Antiviral Res. 118:132-138). […] In contrast, treatment with HBV inhibitors such as a nucleos(t)ide analogs or capsid inhibitors reduces the production of both strands of HBV rcDNA in cells. Concurrently, the effect of compounds on cell viability was assessed using replicate plates, plated at a density of 5,000 cells/well and incubated for 4 days, to determine the ATP content as a measure of cell viability using the cell-titer glo reagent (CTG; Promega Corporation, Madison, Wis.) as per manufacturer's instructions. The plates were read using a Victor luminescence plate reader (PerkinElmer Model 1420 Multilabel counter) and the relative luminescence units (RLU) data generated from each well was calculated as % inhibition of the untreated control wells and analyzed using XL-Fit module in Microsoft Excel to determine EC50 and EC90 (bDNA) and CC50 (CTG) values using a 4-parameter curve fitting algorithm.

The subject of experiment [3] is HBV rcDNA in HepDE19 cells. Description: HepDE19 assay with bDNA quantitation of HBV rcDNA. The conditions noted are these: Hepatitis B virus, 168 h, 7 days, top concentration 25 μM, Quantigene 2.0 bDNA, read-out: bDNA_RCDNA EC50. As to the method:
as §1, §2

pEC50: −log10 of the molar value.

This is an account of results in patent US10550084B2, “Substituted 1-hydroxy-pyridin-2(1H)-ones, and methods of making and using same” (ARBUTUS BIOPHARMA CORPORATION, priority 2017, dated 2020).

Broadly, the pEC50 is the EC50 on a negative log10 scale, so that one unit is a factor of ten. For `CC(=NOc1ccccc1)c1c(C)cc(=O)n(O)c1O` (mixture of isomers) [Compound 2, (E/Z)-1,6-Dihydroxy-4-methyl-5-(1-(phenoxyimino)ethyl)pyridin-2(1H)-one], the pEC50 in experiment [1] is 5.89; in experiment [2], 5.36; in experiment [3] it was 4.77.
The matching figures for `CC(=NOc1ccc(F)cc1)c1c(C)cc(=O)n(O)c1O` (mixture of isomers) [Compound 3, (E/Z)-5-(1-((4-fluorophenoxy)imino)ethyl)-1,6-dihydroxy-4-methylpyridin-2(1H)-one]: 5.93, 5.13 and 4.65.
The corresponding values for `CC(=NOCc1ccccc1)c1c(C)cc(=O)n(O)c1O` (mixture of isomers) [Compound 4, (E/Z)-5-(1-((Benzyloxy)imino)ethyl)-1,6-dihydroxy-4-methylpyridin-2(1H)-one] are 5.65, 4.87 and less than 4.60.
As for `CC(=NOCc1ccc(C)cc1)c1c(C)cc(=O)n(O)c1O` (mixture of isomers) [Compound 5, (E/Z)-1,6-Dihydroxy-4-methyl-5-(1-(((4-methylbenzyl)oxy)imino)ethyl)pyridin-2(1H)-one], the pEC50 was 5.80 in experiment [1], 5.52 in experiment [2] and less than 4.60 in experiment [3].
The corresponding values for `CC(=NOCc1ccc(F)cc1)c1c(C)cc(=O)n(O)c1O` (mixture of isomers) [Compound 6, (E/Z)-5-(1-(((4-fluorobenzyl)oxy)imino)ethyl)-1,6-dihydroxy-4-methylpyridin-2(1H)-one] are 6.19, 5.22 and less than 4.60.
The matching figures for `COc1ccc(CON=C(C)c2c(C)cc(=O)n(O)c2O)cc1` (mixture of isomers) [Compound 7, (E/Z)-1,6-Dihydroxy-5-(1-(((4-methoxybenzyl)oxy)imino)ethyl)-4-methylpyridin-2(1H)-one]: 6.46, 5.15 and less than 4.60.
The corresponding values for `CC(=NOCc1ccccc1N)c1c(C)cc(=O)n(O)c1O` (mixture of isomers) [Compound 8, (E/Z)-5-(1-(((2-Aminobenzyl)oxy)imino)ethyl)-1,6-dihydroxy-4-methylpyridin-2(1H)-one] are 5.65, 4.96 and less than 4.60.
On to `CC(=NOCc1ccccc1F)c1c(C)cc(=O)n(O)c1O` (mixture of isomers) [Compound 9, (E/Z)-5-(1-(((2-Fluorobenzyl)oxy)imino)ethyl)-1,6-dihydroxy-4-methylpyridin-2(1H)-one], for which the pEC50 in experiment [2] and in experiment [3] was less than 4.60 each time.
On to `COc1ccccc1CON=C(C)c1c(C)cc(=O)n(O)c1O` (mixture of isomers) [Compound 10, (E/Z)-1,6-Dihydroxy-5-(1-(((2-methoxybenzyl)oxy)imino)ethyl)-4-methylpyridin-2(1H)-one], for which the results for the pEC50 in experiment [1], in experiment [2] and in experiment [3] were 6.01, 5.19 and less than 4.60, respectively.
